What is called IC50 is the concentration that inhibits the measured activity by half. For orientation: melting point means the temperature, or range, at which the solid turns liquid.

A value given as a limit tells only on which side of the number the result lay.

Consider seven compounds from paper PMC7781899, “Synthesis of some quinazolinones inspired from the natural alkaloid L-norephedrine as EGFR inhibitors and radiosensitizers” (Journal of Enzyme Inhibition and Medicinal Chemistry, 2020).

The subject of data set [1] is MCF-7. The data set can be described thus: MTT cytotoxicity assay, MCF-7. Conditions: for IC50: Homo sapiens, MCF7, MTT assay, mean of three experiments ± SE, read-out: IC50 MCF-7; for Selectivity index (SI) MCF-7: relative to MCF-10A normal cells. It is filed as cell-based, human. Here is the method:
(§1) The 96-well plate was incubated for 24 h before the MTT assay. […] Cells were cultured using DMEM supplemented with 10% foetal bovine serum, 10 µg/mL insulin and 1% penicillin–streptomycin. Reconstituted MTT (10%) was added and incubated for 2 h. Formazan crystals were dissolved by the MTT solubilizing solution after incubation. Absorbance was measured at a wavelength of 570 nm[28].

For data set [2], the system named is HCT-116. The data set can be described thus: MTT cytotoxicity assay, HCT-116. It is filed as cell-based, human. The note with it: for IC50: Homo sapiens, HCT-116, MTT assay, mean of three experiments ± SE, read-out: IC50 HCT-116; for Selectivity index (SI) HCT-116: relative to MCF-10A normal cells. How it is done: as §1
Background: Tetrazolium dyes change colour on reduction, which living cells bring about.

Data set [3] relates to MDA-MB-231. The data set can be described thus: MTT cytotoxicity assay, MDA-MB-231. It is filed as cell-based, human. The note with it: for IC50: Homo sapiens, MDA-MB-231, MTT assay, mean of three experiments ± SE, read-out: IC50 MDA-MB-231; for Selectivity index (SI) MDA-MB-231: relative to MCF-10A normal cells. Here is the method: as §1
A further data set has as its target T1, EGFR (Homo sapiens, UniProt P00533).
T1 construct: purchased Invitrogen
Nature of the data set: EGFR kinase assay. Conditions: EGFR-TK inhibitory assay; means ± SE, three repeats. It is filed as biochemical. How it is done:
An ATP solution and a kinase/peptide mixture were developed just before use. […] Then, […] of the prepared solution was added to each well. The plate was incubated for 1 h and determined by an ELISA Reader (PerkinElmer, USA). Curve fitting using Graph Pad Prism 5 was constructed. Each experiment was repeated three times. IC50 was represented as means ± SE.

The subject of data set [4] is HepG-2. The data set can be described thus: MTT cytotoxicity assay, HepG-2. It is filed as cell-based, human. The note with it: for IC50: Homo sapiens, HepG2, MTT assay, mean of three experiments ± SE, read-out: IC50 HepG-2. How it is done: as §1
The test system of data set [5] is MDA-MB-231. The data set can be described thus: Radiosensitizing evaluation, MDA-MB-231. The note with it: Homo sapiens, MDA-MB-231, light or radiation study, 48 h; single dose of 8 Gy gamma radiation; measured two days after irradiation. It is filed as cell-based. Here is the method:
(§2) Irradiation was performed at the National Centre for Radiation Research and Technology (NCRRT), Egyptian Atomic Energy Authority, using Gamma cell-40 (^137Cs) source. The promising compounds 5 and 6 were selected to be re-evaluated for in vitro cytotoxic activity after the cells containing the compounds were gamma-irradiated at a dose level of 8 Gy with a dose rate of 0.758 rad/s for 17.59 min. Cytotoxicity was measured two days after irradiation. The IC50 of the tested compounds is calculated using GraphPad Prism 5.

Data set [6] has as its system MDA-MB-231 cells. Nature of the data set: Apoptotic assay, Annexin V-FITC/PI. It is filed as cell-based, human. Conditions: 0.76 μM, 24 h. Here is the method: Cells were prepared as previously mentioned. Treatment of cells (10^5) with Annexin V-FITC and propidium iodide (PI) was by apoptosis detection kit [BD Biosciences, San Jose, CA]. The binding of Annexin V-FITC and PI was examined using flow cytometry FACScalibur (BD Biosciences, San Jose, CA). CellQuest software was used for performing quadrant analysis of co-ordinate dot plots.

Data set [7] has as its system HCT-116. The data set can be described thus: Radiosensitizing evaluation, HCT-116. The note with it: Homo sapiens, HCT-116, light or radiation study, 48 h; single dose of 8 Gy gamma radiation; measured two days after irradiation. It is filed as cell-based. Here is the method:
as §2

Data set [8] concerns MDA-MB-231, MCF-7, HepG-2 and HCT-116 human cancer cell lines. The data set can be described thus: MTT assay, panel of cancer cell lines. It is filed as cell-based. Conditions: range over MDA-MB-231, MCF-7, HepG-2, HCT-116, read-out: IC50 against all the cell lines. How it is done: as §1
The test system of data set [9] is MCF-10A normal breast cell line. Nature of the data set: MTT cytotoxicity assay, MCF-10A normal cells. It is filed as cell-based. The note with it: Homo sapiens. How it is done: as §1
The test system of data set [10] is MCF-7. The data set can be described thus: Radiosensitizing evaluation, MCF-7. It is filed as cell-based. The note with it: Homo sapiens, MCF7, light or radiation study, 48 h; single dose of 8 Gy gamma radiation; measured two days after irradiation. How it is done:
as §2

Data set [11] has as its system HepG-2. Nature of the data set: Radiosensitizing evaluation, HepG-2. Conditions: Homo sapiens, HepG2, light or radiation study, 48 h; single dose of 8 Gy gamma radiation; measured two days after irradiation. It is filed as cell-based. Here is the method:
as §2

For data set [12], the system named is MDA-MB-231 cells. The data set can be described thus: Cell cycle analysis by flow cytometry (PI). It is filed as cell-based, human. The note with it: 0.76 μM, 24 h. How it is done:
The MDA-MB-231 cells (10^5/well) were incubated with compound 5 at its IC50. After 24 h, the cells were washed twice with PBS, then collected and fixed with ice-cold ethanol 70% (v/v). The cells were re-suspended with 0.1 mg/mL RNase, stained with […] PI and examined using flow cytometry (FACScalibur-Becton Dickinson).
A general note: In flow cytometry, cells or beads pass a laser one at a time.

Data set [13] has as its system MDA-MB-231, MCF-7, HCT-116, HepG-2. The data set can be described thus: Radiosensitizing evaluation, all tested cell lines. It is filed as cell-based. Conditions: Homo sapiens, light or radiation study; single dose of 8 Gy gamma radiation; read-out: IC50 on all the tested cell lines after irradiation. Here is the method:
as §2

T1 sequence (P00533 25-1210): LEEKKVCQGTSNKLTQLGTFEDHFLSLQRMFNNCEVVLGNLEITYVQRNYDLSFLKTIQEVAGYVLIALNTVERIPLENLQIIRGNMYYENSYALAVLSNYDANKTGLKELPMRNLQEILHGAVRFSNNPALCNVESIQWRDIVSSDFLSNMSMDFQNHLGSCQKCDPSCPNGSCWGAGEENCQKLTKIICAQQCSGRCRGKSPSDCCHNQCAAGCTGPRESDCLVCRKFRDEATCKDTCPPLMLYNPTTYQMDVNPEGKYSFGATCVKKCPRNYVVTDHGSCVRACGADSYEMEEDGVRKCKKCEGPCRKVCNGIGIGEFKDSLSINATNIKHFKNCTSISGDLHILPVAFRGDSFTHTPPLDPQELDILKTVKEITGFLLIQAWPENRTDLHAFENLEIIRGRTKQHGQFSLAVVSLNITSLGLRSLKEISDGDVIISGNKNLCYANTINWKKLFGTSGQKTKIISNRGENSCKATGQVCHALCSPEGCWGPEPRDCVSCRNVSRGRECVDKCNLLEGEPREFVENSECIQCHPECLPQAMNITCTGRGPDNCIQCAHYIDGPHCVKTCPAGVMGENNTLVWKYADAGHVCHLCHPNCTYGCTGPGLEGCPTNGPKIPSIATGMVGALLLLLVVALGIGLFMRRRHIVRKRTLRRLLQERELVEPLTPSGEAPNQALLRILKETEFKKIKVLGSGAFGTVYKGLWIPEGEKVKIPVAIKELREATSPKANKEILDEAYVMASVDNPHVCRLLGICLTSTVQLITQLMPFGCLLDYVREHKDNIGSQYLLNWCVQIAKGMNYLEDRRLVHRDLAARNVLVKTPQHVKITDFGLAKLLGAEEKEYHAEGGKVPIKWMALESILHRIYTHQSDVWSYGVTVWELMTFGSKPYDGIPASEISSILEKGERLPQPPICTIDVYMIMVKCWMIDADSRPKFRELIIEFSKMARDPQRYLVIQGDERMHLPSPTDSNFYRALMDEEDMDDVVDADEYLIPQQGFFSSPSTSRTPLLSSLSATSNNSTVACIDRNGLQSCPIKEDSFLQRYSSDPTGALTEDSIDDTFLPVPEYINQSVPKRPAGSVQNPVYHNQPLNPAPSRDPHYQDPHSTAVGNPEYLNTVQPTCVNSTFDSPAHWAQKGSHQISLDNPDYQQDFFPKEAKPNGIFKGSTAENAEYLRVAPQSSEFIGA

Regarding `CC(C(O)c1ccccc1)n1c(=S)[nH]c2ccccc2c1=O` (stereo not shown) [Compound 4, 3-(1-hydroxy-1-phenylpropan-2-yl)-2-thioxo-2,3-dihydroquinazolin-4(1H)-one], the IC50 in the data set with MCF-7 [1] came out at 25.55 ± 0.02 µM; in the data set with HCT-116 [2], 23.49 ± 0.05 µM; in the data set with MDA-MB-231 [3], 35.24 ± 0.24 µM; against EGFR it was 1.39 ± 0.14 µM; in the data set with HepG-2 [4], 22.7 ± 0.61 µM.

`CSc1nc2ccccc2c(=O)n1C(C)C(O)c1ccccc1` (stereo not shown) [Compound 5, 3-(1-Hydroxy-1-phenylpropan-2-yl)-2-(methylthio)quinazolin-4(3H)-one] showed a melting point of 121.5 °C. For the same compound, in the data set with MCF-7 [1], the IC50 came out at 5.43 ± 0.14 µM and the “Selectivity index (SI) MCF-7” value was found to be 11.39. For the same compound, the IC50 in the data set on MDA-MB-231 [5] was determined as 0.78 ± 0.15 µM. Further, in the data set on MDA-MB-231 cells [6], the “Apoptotic assay % Early” value was determined as 7.36%, the “Apoptotic assay % Late” value is 11.74%, the “Apoptotic assay % Necrosis” value is 3.84% and the “Apoptotic assay % Total” value is reported as 22.94%. Further, the “apoptosis over the control” value with MDA-MB-231 cells [6] is “more than 12 folds”. Besides, the IC50 in the data set on HCT-116 [7] came to 2.28 ± 0.41 µM. In the data set on HCT-116 [2], the IC50 was 5.76 ± 0.11 µM and the “Selectivity index (SI) HCT-116” value is 10.74. Besides, the half-inhibitory concentration (IC50) in data set [8] is 1.53 to 5.76 µM. Also, in the data set with MDA-MB-231 [3], the IC50 was determined as 1.53 ± 0.01 µM and the “Selectivity index (SI) MDA-MB-231” value is given as 40.42. For the same compound, the IC50 in data set [9] came out at 61.9 ± 2.14 µM. This compound came in with an IC50 at EGFR of 0.76 ± 0.1 µM. In addition, the IC50 in the data set with MCF-7 [10] stood at 2.35 ± 0.18 µM. Also, the IC50 in the data set with HepG-2 [11] stood at 2.34 ± 0.23 µM. In addition, in the data set with MDA-MB-231 cells [12], the “% G2-M” value amounted to 40.39%, the “% Pre-G1” value worked out at 19.23%, the “% S” value came to 34.84% and the “%G0-G1” value came to 24.77%. For the same compound, the “rise of percentage of cells at pri-G1 phase over control” value with MDA-MB-231 cells [12] was determined as 10 folds. The IC50 in the data set on HepG-2 [4] was 4.14 ± 0.03 µM. In addition, the “Selectivity index (SI) HepG-2” value with HepG-2 [4] (relative to MCF-10A normal cells) is given as 14.93. In addition, in data set [13], the IC50 is less than 5 µM.

For the compound `Nn1c(=S)[nH]c2ccccc2c1=O` [Compound 6, 3-Amino-2-thioxo-2,3-dihydroquinazolin-4(1H)-one], the melting point worked out at 261.2 °C. Besides, in the data set on MCF-7 [1], the IC50 amounted to 7.23 ± 0.07 µM and the “Selectivity index (SI) MCF-7” value is given as 6.81. Also, in the data set on MDA-MB-231 [5], the IC50 stood at 1.04 ± 0.04 µM. Besides, the IC50 with HCT-116 [7] was 6.98 ± 0.25 µM. In the data set with HCT-116 [2], the concentration for half-maximal inhibition (IC50) amounted to 10.6 ± 0.19 µM and the “Selectivity index (SI) HCT-116” value is given as 4.64. For the same compound, in the data set on MDA-MB-231 [3], the IC50 was 1.6 ± 0.01 µM and the “Selectivity index (SI) MDA-MB-231” value is given as 30.75. Besides, the IC50 in data set [9] stood at 49.2 ± 1.52 µM. Besides, on EGFR, 2.13 ± 0.21 µM corresponded to half-maximal inhibition (IC50). Also, in the data set on MCF-7 [10], the IC50 is 4.26 ± 0.01 µM. Moreover, in the data set with HepG-2 [11], the IC50 stood at 14.26 ± 0.11 µM. Besides, in the data set on HepG-2 [4], the IC50 worked out at 17.6 ± 0.15 µM.

In the case of `CSc1nc2ccccc2c(=O)n1N` [Compound 7, 3-Amino-2-(methylthio)quinazolin-4(3H)-one], the melting point turned out to be 178.9 °C. Besides, the IC50 in the data set with MCF-7 [1] was found to be 68.1 ± 1.21 µM. Moreover, in the data set with HCT-116 [2], the IC50 was 59.2 ± 0.78 µM. Besides, the IC50 with MDA-MB-231 [3] turned out to be 23.48 ± 0.06 µM. The half-inhibitory concentration (IC50) against EGFR came to 3.44 ± 0.15 µM. In addition, the IC50 in the data set with HepG-2 [4] was determined as 48.3 ± 0.93 µM.

Consider `CC1C(c2ccccc2)Sc2nc3ccccc3c(=O)n21` (stereo not shown) [Compound 8, 3-Methyl-2-phenyl-2H-thiazolo[2,3-b]quinazolin-5(3H)-one], for which the IC50 in the data set with MCF-7 [1] is 70.1 ± 0.87 µM; with HCT-116 [2], 49.22 ± 0.49 µM; in the data set on MDA-MB-231 [3], 38.19 ± 0.38 µM; at EGFR, 3.74 ± 0.17 µM; with HepG-2 [4], 47.32 ± 0.47 µM.

In the case of `CC1Nn2c(nc3ccccc3c2=O)OC1c1ccccc1` (stereo not shown) [Compound 9, 3-Methyl-2-phenyl-3,4-dihydro-[1,3,4]oxadiazino[2,3-b]quinazolin-6(2H)-one], the IC50 is more than 100 µM in the data set with MCF-7 [1]; 90.54 ± 0.73 µM in the data set on HCT-116 [2]; 84.15 ± 0.62 µM in the data set on MDA-MB-231 [3]; 9.78 ± 0.31 µM against EGFR; more than 100 µM in the data set with HepG-2 [4].

As for `CC1Nn2c(nc3ccccc3c2=O)SC1c1ccccc1` (stereo not shown) [Compound 10, 3-methyl-2-phenyl-3,4-dihydro-[1,3,4]thiadiazino[2,3-b]quinazolin-6(2H)-one], the IC50 in the data set on MCF-7 [1] is 37.31 ± 0.29 µM; in the data set with HCT-116 [2], 46.3 ± 0.63 µM; in the data set with MDA-MB-231 [3], 21.86 ± 0.04 µM; against EGFR, 3.09 ± 0.2 µM; in the data set on HepG-2 [4] it was 35.6 ± 0.36 µM.
